Measurements: publication PMC9960827, “Cloning and Characterization of Trypanosoma congolense and T. vivax Nucleoside Transporters Reveal the Potential of P1-Type Carriers for the Discovery of Broad-Spectrum Nucleoside-Based Therapeutics against Animal African Trypanosomiasis” (International Journal of Molecular Sciences, 2023)
Read-outs that look alike come from different tables or passages of the source. Marks after values point to notes of the source that are not given here.

Assays:
[1] = tested on: human embryonic kidney (HEK) cells; experiment: Resazurin toxicity assay on human embryonic kidney cells; type: cell-based; conditions: for SI T. congolense: selectivity index = EC50 (HEK cells)/EC50 (T. congolense); for SI T. equiperdum: selectivity index = EC50 (HEK cells)/EC50 (T. equiperdum); for SI T. evansi: selectivity index = EC50 (HEK cells)/EC50 (T. evansi)
Experimental: (§1) EC50 values were determined by plotting to an equation for a sigmoid curve with variable slope (GraphPad Prism 8). All values were the average of at least three independent determinations on different days.

T. equiperdum = experiment: Alamar Blue (resazurin) assay, T. equiperdum; type: cell-based, Trypanosoma equiperdum; conditions: resazurin; read-out: T. equiperdum EC50
Experimental: as §1

T. congolense IL3000 [2] = experiment: Alamar Blue (resazurin) assay, T. congolense IL3000; type: cell-based, Trypanosoma congolense; conditions: BSF, resazurin; read-out: T. congolense IL3000 EC50
Experimental: as §1

L. mexicana SUPKO+TvxNT3 = experiment: microbe, parasite or virus in culture; type: cell-based, Leishmania mexicana; conditions: for SUPKO+TvxNT3 RF (SUPKO): Resistance Factor relative to SUPKO; for EC50: resazurin, promastigotes, read-out: SUPKO+TvxNT3 EC50
Experimental: as §1

L. mexicana SUPKO = experiment: microbe, parasite or virus in culture; type: cell-based, Leishmania mexicana; conditions: for SUPKO RF (Cas9): Resistance Factor = EC50(SUPKO)/EC50(Cas9); for EC50: resazurin, promastigotes, read-out: SUPKO EC50
Experimental: as §1

L. mexicana SUPKO+TcoAT1 = experiment: microbe, parasite or virus in culture; type: cell-based, Leishmania mexicana; conditions: for SUPKO+TcoAT1 RF (SUPKO): Resistance Factor relative to SUPKO; for EC50: resazurin, promastigotes, read-out: SUPKO+TcoAT1 EC50
Experimental: as §1

T.b.b. B48 = experiment: Alamar Blue (resazurin) assay, T. b. brucei B48; type: cell-based, Trypanosoma brucei brucei; conditions: multidrug-resistant strain, resazurin; read-out: T.b.b. B48 EC50
Experimental: as §1

T. evansi = experiment: Alamar Blue (resazurin) assay, T. evansi; type: cell-based, Trypanosoma evansi; conditions: resazurin; read-out: T. evansi EC50
Experimental: as §1

T. congolense 6C3 [3] = experiment: microbe, parasite or virus in culture; type: cell-based, Trypanosoma congolense; conditions: for EC50: diminazene resistant strain, resazurin, read-out: T. congolense 6C3 EC50; for T. congolense 6C3 RF: resistance factor = EC50 (test strain)/EC50(control strain)
Experimental: as §1

T. vivax [4] = tested on: T. vivax; design: method as in Mabille et al. [69]; conditions: added for comparison only; ref Mabille et al. [69]; cited from earlier work
L. mexicana Cas9 = experiment: Resazurin drug sensitivity assay, LmexCas9; type: cell-based, Leishmania mexicana; conditions: resazurin, promastigotes; read-out: LmexCas9 EC50
Experimental: as §1

[5] = target: T. congolense adenosine transporter; experiment: [3H]-adenosine uptake and its inhibition in T. congolense IL3000 bloodstream forms; type: cell-based, Trypanosoma congolense; conditions: for Ki: 0.05 µM [3H]-adenosine, 30 s, IC50 converted to Ki, read-out: Ki on the transport of [3H]-adenosine; for ΔG0, Gibbs free energy of interaction: calculated from Km or Ki
Experimental: (§2) Uptake assays using radiolabeled trypanocides and/or nucleosides were carried out as described previously. Briefly, parasite cultures were harvested, washed twice in assay buffer (33 mM HEPES, 98 mM NaCl, 4.6 mM KCl, 0.5 mM CaCl2, 0.07 mM MgSO4, 5.8 mM NaH3PO4, 0.03 mM MgCl2, 23 mM NaHCO3, 14 mM D-glucose, pH 7.3), then resuspended and adjusted to a density of 1 × 10^8 cells/mL in assay buffer. The radiolabeled permeant in the presence or absence of different concentrations of potential inhibitors reconstituted in 100 μL assay buffer was deposited on top of 250 μL oil mix in microcentrifuge tubes; 1 × 10^7 parasites in 100 μL assay buffer were added to the tube and incubated for a pre-determined interval. The reaction was stopped by the addition of 1 mL of a high concentration of ice-cold unlabeled substrate in assay buffer (‘stop solution’) and centrifugation, or by immediate centrifugation at […] as appropriate. The microcentrifuge tubes were flash-frozen, and the bottom of each tube containing the cell pellet was cut off and transferred to a scintillation vial. Cell pellets were lysed in 2% SDS, after which scintillation fluid (Scintlogic U, Lablogic) was added, followed by overnight incubation in the dark. Scintillation was measured in a 300SL (Hidex) scintillation counter (Hidex). All the assays were conducted in triplicate and analysis was carried out using Microsoft Excel and GraphPad Prism. All kinetic parameters were obtained on at least 3 separate occasions.
(§3) The dose-dependent uptake assay allowed for the affinity of nucleoside analogs to different nucleoside transporters to be determined by measuring the extent to which the analogs compete with and inhibit the uptake of radiolabel adenosine. This allowed for the determination of biochemical parameters such as Km and Vmax through the application of the Michaelis–Menten equation V0 = Vmax([substrate]/([substrate] + Km)). The 50% Inhibitory Concentration (IC50) of the purines and pyrimidines and their analogs was determined from non-linear regression to sigmoid curves with variable slope (Prism 8), and the IC50 of the inhibitor and the Km of the labeled permeant were then used to calculate the inhibition constant (Ki) of the analogs through the Cheng–Prusoff equation: Ki = IC50/(1 + (L/Km)), where L denotes the radiolabel concentration. The calculated Ki was in turn used to determine the Gibbs free energy (ΔG^0) of the inhibitor–transporter interaction using the equation: ΔG^0 = -RTln(Ki), where R represents the gas constant and T symbolizes the absolute temperature in Kelvin [104].

TcoAT1 = type: cell-based, Trypanosoma congolense; conditions: for Ki: 0.05 µM [3H]-adenosine, 10 s, IC50 converted to Ki, read-out: Ki on the transport of [3H]-adenosine
Text: The information for the T. congolense adenosine transporter (TcoAT1) and four putative T. vivax nucleoside transporters was obtained in the TritrypDB (tritrypdb.org/tritrypdb) genome database. Primers were designed to flank each gene upstream of the 5′ end (forward) and downstream of the 3′ end (reverse) as described (primer sequences in Supplementary Table S2). Following amplification from the genomic DNA of T. congolense or T. vivax, DNA for each extracted gene was ligated into the pNUS-HcN expression vector doubly digested with NdeI using the NEBuilder kit according to the manufacturer’s instructions (New England Biolabs). Construct was transformed into competent E. coli cells, and ligation was confirmed by restriction enzyme digestion of isolated plasmid DNA followed by Sanger sequencing (Source BioScience, Nottingham, UK). Confirmed plasmids were then transfected into L. mexicana cell line in which both NT1 and NT2 were doubly knocked out (SUPKO) and derived from L. mexicana Cas9 [64] as described. Clones grown in medium containing 50 μg/mL neomycin (G418) were collected for further confirmation by PCR with genomic DNA using a forward primer of the transporter gene and a reverse primer of the plasmid.
as §2, §3

T. vivax [6] = experiment: T. vivax EC50 (from Mabille et al.); type: cell-based, Trypanosoma vivax; conditions: from Table 8 data
T. congolense IL3000 [7] = tested on: T. congolense IL3000; design: method as in Hulpia et al. [38]; conditions: values marked *; ref Hulpia et al. [38]; cited from earlier work
T. congolense 6C3 [8] = tested on: T. congolense 6C3; design: method as in Hulpia et al. [38]; conditions: values marked *; ref Hulpia et al. [38]; cited from earlier work
[9] = resazurin, 96 well plates, read-out: HEK EC50

SMILES	EC50 [1, 9] [nM]	SI T. congolense [1]	SI T. equiperdum [1]	SI T. evansi [1]	EC50 (T. equiperdum) [nM]	EC50 (T. congolense IL3000 [2]) [nM]	SUPKO+TvxNT3 RF (SUPKO) (L. mexicana SUPKO+TvxNT3)	EC50 (L. mexicana SUPKO+TvxNT3) [nM]	SUPKO RF (Cas9) (L. mexicana SUPKO)	EC50 (L. mexicana SUPKO) [nM]	SUPKO+TcoAT1 RF (SUPKO) (L. mexicana SUPKO+TcoAT1)	EC50 (L. mexicana SUPKO+TcoAT1) [nM]	EC50 (T.b.b. B48) [nM]	EC50 (T. evansi) [nM]	EC50 (T. congolense 6C3 [3]) [nM]	T. congolense 6C3 RF (T. congolense 6C3 [3])	EC50 (T. vivax [4]) [nM]	EC50 (L. mexicana Cas9) [nM]	EC50 [1] [nM]	Ki [5] [nM]	further results
Nc1ncnc2c1c(Cl)cn2[C@@H]1O[C@H](CO)[C@@H](O)[C@H]1O [FH3169]	4550 ± 190	5.3	37	7.4	120 ± 18	860 ± 120	0.97	15900 ± 2500	67.7	15400 ± 2700	1.64	9410 ± 560	1840 ± 330	620 ± 60	750 ± 140	0.87	53 ± 7	230 ± 5			
Nc1ncnc2c1c(I)cn2[C@@H]1O[C@H](CO)C[C@H]1O [FH8496]		902	3260	1340	1.5 ± 0.5	5.4 ± 1	>1.2	40000 ± 9200	1.01	52600	>2.2	23900 ± 5600	24 ± 2	3.7 ± 1.2	3 ± 0.2	0.56	56 ± 1	51800 ± 10300	4910 ± 30	46200 ± 1700	ΔG0, Gibbs free energy of interaction [5]: -5.9 kcal/mol; Ki (TcoAT1): 135000 ± 11000 nM
C#Cc1cn([C@@H]2O[C@H](CO)C[C@H]2O)c2ncnc(N)c12 [FH8505]		68	446	151	2.6 ± 0.8	17 ± 2	>1.25	80000 ± 7700	>1.08	> 100000	>1.1	89900 ± 12500	31 ± 4	7.8 ± 2	8 ± 2	0.46 ^a	160 ± 10	92700 ± 4300	1170 ± 60		fold higher EC50 against T. vivax compared to T. congolense (T. vivax [6]): 10–165 fold
Nc1ncnc2c1c(F)cn2[C@@H]1O[C@H](CO)C[C@H]1O [FH8517]		330	3310	431	0.52 ± 0.11	5.2 ± 0.3	1.06	9420 ± 1410	3.22	9960 ± 2040	1.64	6100 ± 700	13 ± 2	4 ± 0.6	3.1 ± 0.3	0.60	500 ± 10	3090 ± 40	1710 ± 110	98100 ± 2300	ΔG0, Gibbs free energy of interaction [5]: -5.47 kcal/mol; Ki (TcoAT1): 229000 ± 15000 nM; ΔG0 (TcoAT1; Gibbs free energy of binding, from Km or Ki): -4.97 kcal/mol
CC(C)Oc1ncnc2c1c(Cl)cn2[C@@H]1O[C@H](CO)[C@@H](O)[C@H]1O [FH9531]								> 100000		> 100000		> 100000				0.80	120 ± 10	> 100000			EC50 (T. congolense IL3000 [7]): 4040 ± 360 nM; EC50 (T. congolense 6C3 [8]): 3230 ± 360 nM
C=Cc1cn([C@@H]2O[C@H](CO)C[C@H]2O)c2ncnc(N)c12 [FH10659]					11 ± 1	56 ± 4		> 100000		> 100000		> 100000		38 ± 1.5	40 ± 3	0.70	1570 ± 430	> 100000		28500 ± 8100	ΔG0, Gibbs free energy of interaction [5]: -6.19 kcal/mol; fold higher EC50 against T. vivax compared to T. congolense (T. vivax [6]): 10–165 fold; Ki (TcoAT1): 59300 ± 4300 nM
Nc1ncnc2c1ccn2[C@H]1C[C@H](O)[C@@H](CO)O1 [FH10677]	> 200000	>4.6	>12		17400 ± 2300	43300 ± 14500							38000 ± 2300	> 100000	10900 ± 2300	0.25	> 64000				
Nc1ncnc2c1c(Br)cn2[C@H]1C[C@H](O)[C@@H](CO)O1 [FH10679]	> 200000	>390	>3000	>115	67 ± 13	510 ± 90							1040 ± 190	1740 ± 530	310 ± 70	0.60	4300 ± 900				
Nc1ncnc2c1c(Br)cn2[C@@H]1O[C@H](CO)[C@@H](O)[C@H]1O [TH1003]	2370 ± 120	3.0	28	4.9	85 ± 26	790 ± 140		> 100000	>41.2	> 100000	>1.4	71100 ± 5000	1400 ± 90	480 ± 60	520 ± 31	0.66	740 ± 40	2430 ± 140			
